Patent publication US4031259A, “Process of preparing nutritive sweetening compositions” (General Foods Corporation, priority 1975, dated 1977)
Where a SMILES comes first, the peptide text is derived from it.

Columns and labels:
[1] = as much as; cited from earlier work
[2] = Rate of solubility: time to complete dissolution in room temperature distilled water (10 ml, pH 5.7, constant stirring); Solubility Factor derived from it; type: physicochemical; settings: APM alone (control); for Rate of Solubility (time until complete dissolution): in 10 ml room temperature distilled water, pH 5.7, magnetic stirrer, B3: incomplete dissolution after this time
Method: The following represents a broad ratio of systems tested in order to evaluate the effect protein hydrolysates have on the rate of solubility of APM.
All systems were prepared by dissolving the ingredients in water and freeze-drying. Evaluations were made in room temperature distilled water (10 ml) having a pH of 5.7 with constant stirring by a magnetic stirrer. The time was clocked from the instant the powder hit the water until complete dissolution.
Samples A1 - A4 consisted of 1 g. each in 10 ml; samples B1 - B4 (controls) consisted of the amount indicated, also in 10 ml., the total amount of APM in the controls being equivalent to the respective test samples (A1 - A4). Where applicable, the ratio expressed is of APM to soy isolate respectively.
A convenient way of expressing the change in the solubility rate of a given amount of sweetener after combining with protein hydrolysate and dried is called the "Solubility Factor."
This is expressed as follows: [formula] the higher the SF value, the more appreciable the improvement in solubility.

Compound | Rate of Solubility (time until complete dissolution) [2] | further results
COC(=O)[C@H](Cc1ccccc1)NC(=O)[C@@H](N)CC(=O)O [APM, L-aspartyl-L-phenylalanine methyl ester] (H-Asp-Phe-OMe) |  | sweetness relative to sucrose [1]: ≤ 200 times as sweet as sucrose
COC(=O)[C@H](Cc1ccccc1)NC(=O)[C@@H](N)CC(=O)O [Sample B1, L-aspartyl-L-phenylalanine methyl ester] (H-Asp-Phe-OMe) | 7 min | 
COC(=O)[C@H](Cc1ccccc1)NC(=O)[C@@H](N)CC(=O)O [Sample B2, L-aspartyl-L-phenylalanine methyl ester] (H-Asp-Phe-OMe) | 11 min | 
COC(=O)[C@H](Cc1ccccc1)NC(=O)[C@@H](N)CC(=O)O [Sample B3, L-aspartyl-L-phenylalanine methyl ester] (H-Asp-Phe-OMe) | > 50 min | 
COC(=O)[C@H](Cc1ccccc1)NC(=O)[C@@H](N)CC(=O)O [Sample B4, L-aspartyl-L-phenylalanine methyl ester] (H-Asp-Phe-OMe) |  | Rate of Solubility (incomplete dissolution after) ([2]; 200 mgs. in 10 ml room temperature distilled water, pH 5.7): > 1 h
